Columns and labels:
[1] = test system: MN4 (DNA, aptamer) GGCGACAAGGAAAATCCTTCAACGAAGTGGGTCGCC; assay: ITC competition; settings: 140 mM NaCl, 5 mM KCl; 20 mM TRIS pH 7.4, 1% DMSO, 15 °C; apparent; ART pre-bound 3:1, competitive binding model
[2] = test system: MN19 (DNA, aptamer) GACAAGGAAAATCCTTCAACGAAGTGGGTC; assay: UV melting, 260 nm; settings: 137 mM NaCl, 2.7 mM KCl; PBS pH 7.4, 3% acetonitrile; Tm of complex, free MN19 shows no transition
[3] = test system: MN4 (DNA, aptamer) GGCGACAAGGAAAATCCTTCAACGAAGTGGGTCGCC; assay: ITC; settings: 140 mM NaCl, 5 mM KCl, 15 °C
[4] = test system: SS1 (DNA, junction) GGCGACGAGGAAAATCCTTCGACGAAGTAAGTCGCC; assay: ITC; settings: 140 mM NaCl, 5 mM KCl; 20 mM TRIS pH 7.4, 2.4% DMSO, 15 °C; site 1 of 2
[5] = test system: Hexamer (DNA, duplex) CGTACG/CGTACG; assay: ITC; settings: 140 mM NaCl, 5 mM KCl; 20 mM TRIS pH 7.4, 2.4% DMSO, 15 °C; site 1 of 2
[6] = test system: MN4 (DNA, aptamer) GGCGACAAGGAAAATCCTTCAACGAAGTGGGTCGCC; assay: native mass spectrometry with CID; settings: 300 mM ammonium acetate; pH 6.8; 10 µM aptamer, 100 µM ART; non-covalent
[7] = test system: DDD (DNA, duplex) CGCGAATTCGCG/CGCGAATTCGCG; assay: ITC; settings: 140 mM NaCl, 5 mM KCl; 20 mM TRIS pH 7.4, 2.4% DMSO, 15 °C; site 1 of 2
[8] = test system: OR7 (DNA, aptamer) CAAGGAAAATCCTTCAACGAAGTGGG; assay: ITC; settings: 140 mM NaCl, 5 mM KCl; 20 mM TRIS pH 7.4, 2.4% DMSO, 15 °C; site 1 of 2
[9] = test system: MN19-SITS (DNA, aptamer) GACAAGGAAAATCCTTCAACGAAGTGGGTC; assay: photochrome aptamer switch assay (fluorescence decay); settings: 140 mM NaCl; 20 mM Tris pH 7.4, 3% DMSO, 20 °C; 0-4.2 µM ART
[10] = test system: poly-dT (DNA, single strand) TTTTTTTTTTTT; assay: ITC; settings: 140 mM NaCl, 5 mM KCl; 20 mM TRIS pH 7.4, 2.4% DMSO, 15 °C; 20 µM nucleic acid, 0.312 mM titrant
[11] = test system: MN4 (DNA, aptamer) GGCGACAAGGAAAATCCTTCAACGAAGTGGGTCGCC; assay: 1H NMR imino titration; settings: sodium phosphate, no added NaCl; 20 mM phosphate pH 7.4, 5 °C; slow exchange, shifts near three-way junction
[12] = test system: SRE RNA (RNA, hairpin) GGAGGCUCUGGCAGCUUUC; assay: ITC; settings: 140 mM NaCl, 5 mM KCl; 20 mM TRIS pH 7.4, 2.4% DMSO, 15 °C; 20 µM nucleic acid, 0.312 mM titrant
[13] = test system: MN19 (DNA, aptamer) GACAAGGAAAATCCTTCAACGAAGTGGGTC; assay: ITC; settings: 140 mM NaCl, 5 mM KCl; 20 mM TRIS pH 7.4, 2.4% DMSO, 15 °C; site 1 of 2
[14] = test system: TWJ (DNA, junction) CGTGCAGCGGCTTGCCGGCACTTGTGCTTCTGCACG; assay: ITC; settings: 140 mM NaCl, 5 mM KCl; 20 mM TRIS pH 7.4, 2.4% DMSO, 15 °C; site 1 of 2
[15] = test system: Hybrid DNA/RNA (DNA:RNA, duplex) GACACCUGAUUC/GAATCAGGTGTC; assay: ITC; settings: 140 mM NaCl, 5 mM KCl; 20 mM TRIS pH 7.4, 2.4% DMSO, 15 °C; 20 µM nucleic acid, 0.312 mM titrant

Kd, app [1]	Tm [2]	binding ([3]; 20 mM TRIS pH 7.4, 1.5% DMSO, 20 µM aptamer, 0.312 mM titrant)	Kd1 [4]	Kd1 [5]	Kd1 ([3]; 20 mM TRIS pH 7.4, 2.4% DMSO, site 1 of 2)	binding [6]	Kd1 [7]	Kd1 [8]	binding [9]	binding [10]	binding [11]	binding [12]	Kd1 [13]	Kd1 [14]	binding [15]	SMILES
1.1 ± 0.1 µM	36.4 ± 1.2 °C	–	–	–	–	–	–	–	–	–	–	–	–	–	–	C=C[C@H]1CN2CC[C@H]1C[C@H]2[C@H](O)c1ccnc2ccc(OC)cc12
–	–	no	–	–	–	–	–	–	–	–	–	–	–	–	–	C[C@@H]1CC[C@H]2[C@@H](C)C(=O)O[C@@H]3O[C@@]4(C)CC[C@@H]1[C@]32O4
–	34.8 ± 1.1 °C	–	0.004 ± 0.002 µM	0.007 ± 0.004 µM	0.03 ± 0.01 µM	yes	0.10 ± 0.03 µM	0.03 ± 0.01 µM	yes	no	yes	no	0.02 ± 0.01 µM	0.06 ± 0.02 µM	no	C[C@@H]1CC[C@H]2[C@@H](C)C(=O)O[C@@H]3O[C@@]4(C)CC[C@@H]1[C@]32OO4
